# Data as given in BindingDB's records for doi:10.7270/Q2ZC817P (The Scripps Research Institute Molecular Screening Center, 2007).
# Counter-ions that a name gives are not always drawn.
# Molecular target: Sphingosine 1-phosphate receptor 1 (Homo sapiens, UniProt P21453)
# Experiment: potentiators of S1P1 agonist response, dose response, cell-based, potentiator mode, 60K MLSMR set (AID 466)
# Details: not given
# Sequence of Sphingosine 1-phosphate receptor 1 (P21453 whole entry): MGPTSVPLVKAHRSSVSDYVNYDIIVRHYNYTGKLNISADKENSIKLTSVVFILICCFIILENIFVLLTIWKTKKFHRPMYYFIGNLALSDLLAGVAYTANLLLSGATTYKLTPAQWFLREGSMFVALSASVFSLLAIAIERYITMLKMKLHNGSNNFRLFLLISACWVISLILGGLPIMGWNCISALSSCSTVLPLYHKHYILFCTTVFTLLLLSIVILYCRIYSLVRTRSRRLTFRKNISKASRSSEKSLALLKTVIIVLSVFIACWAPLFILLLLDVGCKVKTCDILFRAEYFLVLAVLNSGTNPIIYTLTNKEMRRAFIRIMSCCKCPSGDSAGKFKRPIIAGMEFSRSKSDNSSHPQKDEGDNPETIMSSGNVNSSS
row,Structure (SMILES),EC50 [µM]
1,"Cc1cc(C=c2sc3nc4ccccc4n3c2=O)c(C)n1-c1ccccn1 [2-[(2,5-dimethyl-1-pyridin-2-yl-pyrrol-3-yl)methylidene]-[1,3]thiazolo[3,2-a]benzimidazol-1-one]",0.111
2,Cc1ccc2c(c1)[nH]c1c(N3CCN(Cc4ccccc4)CC3)ncnc12 [SMR000044826],3.65
3,Cc1cc(C=Nn2cnnc2)c(C)n1-c1ccc(OCc2ccc(F)cc2)cc1 [MLS000112167],0.502
4,"O=C(CCN1CCc2ccccc2CC1)c1ccc2c(c1)OCCO2 [1-(2,3-dihydro-1,4-benzodioxin-6-yl)-3-(1,2,4,5-tetrahydro-3-benzazepin-3-yl)-1-propanone;hydrochloride]",12.4
5,Cc1cc2nc(-c3ccc(NC(=O)C(C)C)cc3)oc2cc1C [MLS000109473],2.77
6,Cc1oc(-c2ccccc2)nc1Cn1cccc1C1=NC(c2ccccc2)CO1 (centres undefined) [SMR000026251],0.692
7,"CCN(CC)C(=O)CS/C(=N/C#N)Nc1ccccc1F [2-[[N-cyano-N'-(2-fluorophenyl)amidino]thio]-N,N-diethyl-acetamide]",> 95
8,"Cc1cc(C(=O)CSc2nc3ccccc3c(=O)n2C)c(C)n1Cc1ccc2c(c1)OCO2 [2-[2-[1-(1,3-benzodioxol-5-ylmethyl)-2,5-dimethyl-pyrrol-3-yl]-2-oxidanylidene-ethyl]sulfanyl-3-methyl-quinazolin-4-one]",5.57
9,"OCC12C=CC(O1)c1c2c(O)n(-c2ccccc2-c2ccccc2)c1O (centres undefined) [7-(hydroxymethyl)-2-(2-phenylphenyl)-4,7a-dihydro-3aH-octahydro-1H-4,7-epoxyisoindole-1,3-dione]",6.82
10,"COc1ccc(-c2nc(-c3ccccc3OC)no2)cc1OC [5-(3,4-dimethoxyphenyl)-3-(2-methoxyphenyl)-1,2,4-oxadiazole]",0.139
11,"c1ccc(-c2ccc(-c3nc(-c4cccnc4)no3)cc2)cc1 [5-(4-phenylphenyl)-3-(3-pyridinyl)-1,2,4-oxadiazole]",1.91
12,"Cc1sc2ncnc(Sc3nnnn3-c3ccccc3)c2c1C [5,6-dimethyl-4-(1-phenyltetrazol-5-yl)sulfanylthieno[2,3-d]pyrimidine]",> 95
13,O=C(Nc1c(F)cc(F)cc1Br)c1cc(-c2ccc(O)cc2)on1 [MLS000116264],2.14
14,COc1ccc2[nH]c(=O)c3c(c2c1)OC(C)(C)C=C3,6.25
15,COc1ccccc1OCCCCCc1c(C)n[nH]c1C [SMR000103101],8.22
16,Clc1ccc(NCn2cncn2)nc1,> 95
17,"CCC(NCc1ccc2c(c1)OCO2)=C1C(=O)NC(=O)N(C2CCCCC2)C1=O [(5E)-5-[1-(1,3-benzodioxol-5-ylmethylamino)propylidene]-1-cyclohexyl-1,3-diazinane-2,4,6-trione]",8.66
18,"CCOc1ccc(-c2nc(-c3ccncc3)no2)cc1OCC [4-[5-(3,4-diethoxyphenyl)-1,2,4-oxadiazol-3-yl]pyridine]",0.226
19,CCc1cc(-c2n[nH]cc2-c2ccc3c(c2)OCO3)c(O)cc1O [SMR000060132],6.57
20,"CCOC(=O)c1oc2cc(O)c(CC)cc2c(=O)c1-c1ccc2c(c1)OCCO2 [3-(2,3-dihydro-1,4-benzodioxin-6-yl)-6-ethyl-7-hydroxy-4-keto-chromene-2-carboxylic acid ethyl ester]",> 10
21,CCC(NC(=O)Nc1nnc(C(F)(F)F)s1)(C(F)(F)F)C(F)(F)F,> 95
22,O=C(Nc1ccc(S(=O)(=O)NCc2ccco2)cc1)c1ccc2ccccc2n1 [MLS000098663],6.51
23,Cc1nn(C(=O)c2cccs2)c(N)c1-c1ccccc1 [(5-amino-3-methyl-4-phenyl-1-pyrazolyl)-thiophen-2-ylmethanone],4.9
24,CCOc1ccc(C(=O)Nc2c(C(N)=O)oc3ccccc23)cc1 [3-[(4-ethoxybenzoyl)amino]-1-benzofuran-2-carboxamide],3.67
25,NC(=Nc1nc2c(c(=O)[nH]1)CCCC2)Nc1ccccc1 [MLS000078734],5.87

row,Structure (SMILES),EC50 [µM]
1,"O=S(=O)(C/C(=C/CO)S(=O)(=O)c1ccccc1)c1ccccc1 [(Z)-3,4-bis(benzenesulfonyl)but-2-en-1-ol]",8.68
2,"CCOc1ccc(S(=O)(=O)N2CCN(c3ccc(C)cc3C)CC2)cc1 [1-(2,4-dimethylphenyl)-4-(4-ethoxyphenyl)sulfonyl-piperazine]",> 95
3,CCCCOC(=O)c1[nH]c2c(c1C)C(=O)CC(c1cc(OC)c(OC)c(OC)c1)C2 (centres undefined),5.06
4,"COc1ccc(C(=O)C2C(=O)C(=O)N(CC3CCCO3)C2c2cccc(OC)c2)cc1 (centres undefined) [(4Z)-4-[hydroxy-(4-methoxyphenyl)methylene]-5-(3-methoxyphenyl)-1-(tetrahydrofurfuryl)pyrrolidine-2,3-quinone]",> 95
5,COC(=O)Cc1sc(=O)[nH]c1Nc1ccccc1 [MLS000111966],> 95
6,"COc1ccccc1Oc1ccc2c(c1)C(=O)N(c1ccc(O)cc1)C2=O [2-(4-hydroxyphenyl)-5-(2-methoxyphenoxy)isoindole-1,3-dione]",0.151
7,CC(C)(C)OC(=O)N[C@@H](Cc1ccccc1)c1nnc(S(=O)(=O)Cc2ccccc2)o1 [SMR000047857],5.33
8,"O=C(C1CCC1)N1CCc2cc(S(=O)(=O)Nc3ccc4c(c3)OCCO4)ccc21 [1-(cyclobutanecarbonyl)-N-(2,3-dihydro-1,4-benzodioxin-6-yl)-2,3-dihydroindole-5-sulfonamide]",> 30
9,"CCn1nc(-c2ccccc2)nc2c(=O)n(C)c(=O)nc1-2 [1-Ethyl-6-methyl-3-phenyl-1H-pyrimido[5,4-e][1,2,4]triazine-5,7-dione]",4.29
10,"Cc1ccc(C(C)C)c(OCc2ccc(-c3nnco3)cc2)c1 [2-[4-[(2-isopropyl-5-methyl-phenoxy)methyl]phenyl]-1,3,4-oxadiazole]",1.72
11,Cc1cc(C=Nn2cnnc2)c(C)n1-c1ccc(OCc2ccccc2F)cc1 [MLS000112180],0.803
12,CCCc1ccc(Oc2c[nH]nc2-c2ccc(O)c(C)c2O)cc1 [SMR000024172],14.9
13,"Cc1ccc(-c2nnc(SCc3ccccc3F)o2)cc1 [2-[(2-fluorobenzyl)thio]-5-(4-methylphenyl)-1,3,4-oxadiazole]",1.14
14,CC(C)OCCCNc1ncnc2c1[nH]c1ccc(F)cc12,5.48
15,O=C(Nc1cccc(C(F)(F)F)c1)C1CCCN1S(=O)(=O)c1cccc2cccnc12 (centres undefined) [1-(8-quinolinylsulfonyl)-N-[3-(trifluoromethyl)phenyl]-2-pyrrolidinecarboxamide],5.41
16,"COC(=O)c1sc(NC(=O)c2ccc(OC)cc2OC)nc1C [2-[(2,4-dimethoxybenzoyl)amino]-4-methyl-thiazole-5-carboxylic acid methyl ester]",7.76
17,c1ccc(CN2CCN(c3ncnc4c3[nH]c3ccccc34)CC2)cc1 [MLS000078384],3.95
18,"CN=C(NC#N)SCC(=O)c1ccc(Cl)cc1Cl [[2-(2,4-dichlorophenyl)-2-oxidanylidene-ethyl] N-cyano-N'-methyl-carbamimidothioate]",4.32
19,"COc1cc(CSc2nnnn2-c2ccc(C)cc2)cc(OC)c1OC [1-(4-methylphenyl)-5-[(3,4,5-trimethoxybenzyl)thio]-1H-tetrazole]",2.87
20,"Cc1cc(C)cc(-c2nc(-c3ccncc3)no2)c1 [5-(3,5-dimethylphenyl)-3-(4-pyridyl)-1,2,4-oxadiazole]",1.44
21,"CC(C)OC(=O)CSc1nc(N)c(C#N)c(-c2cccs2)c1C#N [2-[(6-amino-3,5-dicyano-4-thiophen-2-yl-2-pyridinyl)thio]acetic acid propan-2-yl ester]",> 30
22,"CCOc1ccc(S(=O)(=O)n2cnc3cc(C)c(C)cc32)cc1 [1-(4-Ethoxy-benzenesulfonyl)-5,6-dimethyl-1H-benzoimidazole]",8.29
23,"CCOc1ccc(-c2nnc(-c3cccs3)o2)cc1OCC [2-(3,4-Diethoxy-phenyl)-5-thiophen-2-yl-[1,3,4]oxadiazole]",5.58
24,Cc1ccc(O)c(NC(=O)CCC2CCCCC2)c1 [3-cyclohexyl-N-(2-hydroxy-5-methyl-phenyl)propionamide],> 95

# Same assay, conditions: inactive by the depositor's call
row,Structure (SMILES),EC50 [µM]
1,CCC(=O)Nc1ccc2c(c1)C(=O)N(C1CCCCC1)C2=O [MLS000099936],58
2,"O=c1oc2cc(Br)ccc2n1CSC1=NCCS1 [6-Bromo-3-(4,5-dihydro-thiazol-2-ylsulfanylmethyl)-3H-benzooxazol-2-one]",17.6
3,Cc1ccc2[nH]c3c(NCc4ccco4)ncnc3c2c1 [MLS000040855],10.8
4,CC(C)Cn1c(=O)c(C(=O)Nc2ccccc2S(N)(=O)=O)c(O)c2ccccc21 [1-(2-methylpropyl)-2-oxidanyl-4-oxidanylidene-N-(2-sulfamoylphenyl)quinoline-3-carboxamide],14.4
5,CCCC(=O)Nc1ccc(-c2nc3cc(C)c(C)cc3o2)cc1 [MLS000089940],10.8
6,CCCn1c(NC(=O)c2cccc(S(=O)(=O)N3CCCC3)c2)nc2ccccc21 [MLS000057540],10.3
7,"Cc1cccc(-c2nc(CSCC(=O)N3CCN(c4ccccn4)CC3)c(C)o2)c1 [1-[({[5-methyl-2-(3-methylphenyl)-1,3-oxazol-4-yl]methyl}thio)acetyl]-4-pyridin-2-ylpiperazine]",12.2
8,C=CCOC(=O)c1[nH]c2c(c1C)C(=O)CC(c1cc(OC)c(OC)c(OC)c1)C2 (centres undefined) [SMR000093465],11.1
9,"Clc1ccc(CSc2nnc(-c3ccncc3)o2)c(Cl)c1 [2-[(2,4-dichlorobenzyl)thio]-5-(4-pyridyl)-1,3,4-oxadiazole]",38.5
10,CC(C)[C@H](NC(=O)OC(C)(C)C)c1nnc(SCC(=O)Nc2ccc(Br)cc2)o1 [MLS000040800],16.2
11,"CCOc1ccccc1COC(=O)c1cccc(-n2cnnn2)c1 [(2-ethoxyphenyl)methyl 3-(1,2,3,4-tetrazol-1-yl)benzoate]",25.8
12,Cc1nn(Cc2ccc(Cl)cc2)c(C)c1NC(=O)c1cc(-c2ccco2)on1 [MLS000087233],14.1
13,O=S1(=O)C=C(Sc2nnc(-c3ccccc3)o2)c2ccccc21,23.5
14,"CCOC(=O)c1ccc(NC(=O)CCc2nc(-c3ccc(Cl)cc3)no2)cc1 [4-[3-[3-(4-chlorophenyl)-1,2,4-oxadiazol-5-yl]propanoylamino]benzoic acid ethyl ester]",13
15,"CCOc1cc(-c2noc(-c3cccnc3)n2)ccc1OC [3-(3-ethoxy-4-methoxy-phenyl)-5-(3-pyridyl)-1,2,4-oxadiazole]",18.2
